From PubChem BioAssay AID1845197 (Molecular Pharmacology Branch, DTP, NCI, 2023)

System: 349418-098-R tumor spheroid viability
Assay: Anticancer human tumor 349418-098-R patient-derived lung adenocarcinoma cell line growth inhibition
Conditions: spheroids with HUVEC and MSC; for IC50: curve of first compound; for viability, T/C: stronger effect = lower value; active = viability on the fitted dose curve at most 10% of control; inactive = the rest
Outline: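 Single agents and combinations were tested on spheroids built from tumor cells plus HUVEC and hMSC, at half-log dilutions starting at or near clinical Cmax, else 10 microM; final DMSO 0.25% (v/v).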
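Note: spheroids exposed to compound for 7 days before measurement.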
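Throughout, for viability, T/C: percent of vehicle control viability with 100% = DMSO-treated spheroids.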

[2H]c1nc(C)nc([2H])c1-c1cc(NC[C@@H](C)c2cccc3c(C(=O)NC)ccnc23)ncn1 + Cn1nnc2c(C(N)=O)ncn2c1=O
inactive: viability, T/C (second compound 1 µM, first compound 0.0316 µM) 98.9% | viability, T/C (second compound 1 µM, first compound 0.1 µM) 103% | viability, T/C (second compound 1 µM, first compound 0.316 µM) 98.7% | viability, T/C (second compound 1 µM, first compound 1 µM) 97.9% | viability, T/C (second compound 1 µM, first compound 3.16 µM) 102% | viability, T/C (second compound 1 µM, first compound 10 µM) 97.3% | viability, T/C (second compound 3.16 µM, first compound 0.0316 µM) 109% | viability, T/C (second compound 3.16 µM, first compound 0.1 µM) 105% | viability, T/C (second compound 3.16 µM, first compound 0.316 µM) 104% | viability, T/C (second compound 3.16 µM, first compound 1 µM) 98.3% | viability, T/C (second compound 3.16 µM, first compound 3.16 µM) 104% | viability, T/C (second compound 3.16 µM, first compound 10 µM) 103% | viability, T/C (second compound 10 µM, first compound 0.0316 µM) 104% | viability, T/C (second compound 10 µM, first compound 0.1 µM) 96.6% | viability, T/C (second compound 10 µM, first compound 0.316 µM) 102% | viability, T/C (second compound 10 µM, first compound 1 µM) 106% | viability, T/C (second compound 10 µM, first compound 3.16 µM) 101% | viability, T/C (second compound 10 µM, first compound 10 µM) 104% | viability, T/C (second compound 31.6 µM, first compound 0.0316 µM) 97.8% | viability, T/C (second compound 31.6 µM, first compound 0.1 µM) 110% | viability, T/C (second compound 31.6 µM, first compound 0.316 µM) 101% | viability, T/C (second compound 31.6 µM, first compound 1 µM) 104% | viability, T/C (second compound 31.6 µM, first compound 3.16 µM) 103% | viability, T/C (second compound 31.6 µM, first compound 10 µM) 104% | viability, T/C (second compound 100 µM, first compound 0.0316 µM) 106% | viability, T/C (second compound 100 µM, first compound 0.1 µM) 109% | viability, T/C (second compound 100 µM, first compound 0.316 µM) 106% | viability, T/C (second compound 100 µM, first compound 1 µM) 106% | viability, T/C (second compound 100 µM, first compound 3.16 µM) 108% | viability, T/C (second compound 100 µM, first compound 10 µM) 110%
> 10 µM: IC50 (second compound 1 µM) | IC50 (second compound 3.16 µM) | IC50 (second compound 10 µM) | IC50 (second compound 31.6 µM) | IC50 (second compound 100 µM)

COc1ccc([C@@H](O)c2cc(-c3ncnc4cc(N5CCOCC5)ccc34)c(F)cc2Cl)nn1 + CC[C@@]1(O)C(=O)OCc2c1cc1n(c2=O)Cc2cc3c(CN(C)C)c(O)ccc3nc2-1
0.679 µM: IC50 (second compound 0.03 µM)
6.18 µM: IC50 (second compound 0.00949 µM)
active: viability, T/C (second compound 0.3 µM, first compound 0.0316 µM) 4.47% | viability, T/C (second compound 0.3 µM, first compound 0.1 µM) 3.97% | viability, T/C (second compound 0.3 µM, first compound 0.316 µM) 4.59% | viability, T/C (second compound 0.3 µM, first compound 1 µM) 4.78% | viability, T/C (second compound 0.3 µM, first compound 3.16 µM) 4.77% | viability, T/C (second compound 0.3 µM, first compound 10 µM) 3.94%
< 0.0316 µM: IC50 (second compound 0.0949 µM) | IC50 (second compound 0.3 µM)
7.87 µM: IC50 (second compound 0.003 µM)
inactive: viability, T/C (second compound 0.003 µM, first compound 0.0316 µM) 103% | viability, T/C (second compound 0.003 µM, first compound 0.1 µM) 107% | viability, T/C (second compound 0.003 µM, first compound 0.316 µM) 106% | viability, T/C (second compound 0.003 µM, first compound 1 µM) 106% | viability, T/C (second compound 0.003 µM, first compound 3.16 µM) 89.2% | viability, T/C (second compound 0.003 µM, first compound 10 µM) 39% | viability, T/C (second compound 0.00949 µM, first compound 0.0316 µM) 90.1% | viability, T/C (second compound 0.00949 µM, first compound 0.1 µM) 102% | viability, T/C (second compound 0.00949 µM, first compound 0.316 µM) 106% | viability, T/C (second compound 0.00949 µM, first compound 1 µM) 102% | viability, T/C (second compound 0.00949 µM, first compound 3.16 µM) 82.8% | viability, T/C (second compound 0.00949 µM, first compound 10 µM) 26.5% | viability, T/C (second compound 0.03 µM, first compound 0.0316 µM) 69.8% | viability, T/C (second compound 0.03 µM, first compound 0.1 µM) 78.5% | viability, T/C (second compound 0.03 µM, first compound 0.316 µM) 60.4% | viability, T/C (second compound 0.03 µM, first compound 1 µM) 43.9% | viability, T/C (second compound 0.03 µM, first compound 3.16 µM) 26.1% | viability, T/C (second compound 0.03 µM, first compound 10 µM) 18.9% | viability, T/C (second compound 0.0949 µM, first compound 0.0316 µM) 18.4% | viability, T/C (second compound 0.0949 µM, first compound 0.1 µM) 11.6% | viability, T/C (second compound 0.0949 µM, first compound 0.316 µM) 14.2% | viability, T/C (second compound 0.0949 µM, first compound 1 µM) 13.7% | viability, T/C (second compound 0.0949 µM, first compound 3.16 µM) 11.4% | viability, T/C (second compound 0.0949 µM, first compound 10 µM) 9.78%
